For the assay, the target named is wild type c-kit (Homo sapiens (Human), UniProt P10721). Kind of assay: PathScan phospho c-kit (Tyr719) sandwich ELISA in SCF-stimulated M-07e cells (pKIT assay). The format is cell-based. The following applies: ELISA assay (values not marked *). The method in brief:
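Tyr719-phosphorylated c-kit was measured by colorimetric (TMB) sandwich ELISA in lysates of M-07e cells. Cells were starved 4 h without serum or GM-CSF, dosed 60 min at 37 °C with compound (8 points, duplicate, 0.25% DMSO), and stimulated 10 min with human SCF (500 ng/mL as added). IC50 values came from 4-parameter logistic regression.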

SMILES strings stand for the structures.

Sequence of wild type c-kit (P10721 26-976): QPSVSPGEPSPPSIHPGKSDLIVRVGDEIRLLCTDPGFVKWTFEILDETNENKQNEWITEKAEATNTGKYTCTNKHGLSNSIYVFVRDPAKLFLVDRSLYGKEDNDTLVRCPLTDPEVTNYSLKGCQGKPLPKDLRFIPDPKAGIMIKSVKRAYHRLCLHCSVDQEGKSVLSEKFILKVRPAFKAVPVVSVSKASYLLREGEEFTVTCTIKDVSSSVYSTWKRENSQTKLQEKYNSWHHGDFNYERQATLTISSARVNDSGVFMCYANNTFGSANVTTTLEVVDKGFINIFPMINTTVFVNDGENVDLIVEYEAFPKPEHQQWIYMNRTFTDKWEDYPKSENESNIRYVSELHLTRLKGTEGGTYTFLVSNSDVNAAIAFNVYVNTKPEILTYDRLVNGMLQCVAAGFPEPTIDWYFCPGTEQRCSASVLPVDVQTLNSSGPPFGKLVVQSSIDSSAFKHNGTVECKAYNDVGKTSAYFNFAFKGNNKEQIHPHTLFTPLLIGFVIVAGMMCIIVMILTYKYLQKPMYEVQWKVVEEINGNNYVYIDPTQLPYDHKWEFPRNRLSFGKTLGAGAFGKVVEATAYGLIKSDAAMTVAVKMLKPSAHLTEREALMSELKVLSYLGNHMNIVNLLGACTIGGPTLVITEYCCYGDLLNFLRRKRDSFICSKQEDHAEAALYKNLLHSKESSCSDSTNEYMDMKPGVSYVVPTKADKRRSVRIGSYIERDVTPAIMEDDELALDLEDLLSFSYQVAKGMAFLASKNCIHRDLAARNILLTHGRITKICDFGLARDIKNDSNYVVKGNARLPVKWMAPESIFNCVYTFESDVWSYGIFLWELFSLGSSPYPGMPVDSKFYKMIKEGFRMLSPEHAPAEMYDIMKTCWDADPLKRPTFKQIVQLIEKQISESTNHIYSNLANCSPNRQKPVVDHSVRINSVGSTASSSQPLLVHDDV

For orientation: IC50 means the concentration at which inhibition is half-maximal. Lower therefore signals higher potency. `COC(=O)N1CC(n2nnc(-c3ccc(C)c(NC(=O)c4cnn5ccc(N6CCN(C7COC7)CC6)cc45)c3)n2)C1` [Example 74, methyl 3-(5-(4-methyl-3-(5-(4-(oxetan-3-yl)piperazin-1-yl)pyrazolo[1,5-a]pyridine-3-carboxamido)phenyl)-2H-tetrazol-2-yl)azetidine-1-carboxylate] displayed an IC50 of 63.9 nM.

Consider `[2H]C([2H])([2H])N1CCN(c2ccn3ncc(C(=O)Nc4cc(-n5ncc(C6CN(C(=O)OC)C6)n5)ccc4C)c3c2)CC1` [Example 82, methyl 3-(2-(4-methyl-3-(5-(4-(methyl-d3)piperazin-1-yl)pyrazolo[1,5-a]pyridine-3-carboxamido)phenyl)-2H-1,2,3-triazol-4-yl)azetidine-1-carboxylate], for which inhibition was half-maximal at 23.4 nM (IC50).

With `[2H]C([2H])([2H])OCCNc1ccn2ncc(C(=O)Nc3cc(-c4nnn(C5CN(C(=O)OC)C5)n4)ccc3C)c2c1` [Example 100, methyl 3-(5-(3-(5-((2-(methoxy-d3)ethyl)amino)pyrazolo[1,5-a]pyridine-3-carboxamido)-4-methylphenyl)-2H-tetrazol-2-yl)azetidine-1-carboxylate], 33.8 nM corresponded to half-maximal inhibition (IC50).

In the case of `Cc1nn([C@@H](C)[C@H](C)O)cc1-c1ccn2ncc(C(=O)Nc3cc(-c4nnn(C5CC5)n4)c(F)cc3Cl)c2c1` (single isomer, unassigned) [Example 288, N-(2-chloro-5-(2-cyclopropyl-2H-tetrazol-5-yl)-4-fluorophenyl)-5-(1-((2S,3S)-3-hydroxybutan-2-yl)-3-methyl-1H-pyrazol-4-yl)pyrazolo[1,5-a]pyridine-3-carboxamide or N-(2-chloro-5-(2-cyclopropyl-2H-tetrazol-5-yl)-4-fluorophenyl)-5-(1-((2R,3R)-3-hydroxybutan-2-yl)-3-methyl-1H-pyrazol-4-yl)pyrazolo[1,5-a]pyridine-3-carboxamide], the IC50 amounted to 0.4 nM.

Molecule `COC(=O)N1CC(n2nnc(-c3ccc(C)c(NC(=O)c4cnn5ccc(N6CCO[C@@H](CO)C6)cc45)c3)n2)C1` [Example 91, methyl (R)-3-(5-(3-(5-(2-(hydroxymethyl)morpholino)pyrazolo[1,5-a]pyridine-3-carboxamido)-4-methylphenyl)-2H-tetrazol-2-yl)azetidine-1-carboxylate] had an IC50 of 50.9 nM.

In the case of `CCOC(=O)N1CC(n2nnc(-c3ccc(C)c(NC(=O)c4cnn5ccc(N6CCN(C)CC6)cc45)c3)n2)C1` [Example 76, ethyl 3-(5-(4-methyl-3-(5-(4-methylpiperazin-1-yl)pyrazolo[1,5-a]pyridine-3-carboxamido)phenyl)-2H-tetrazol-2-yl)azetidine-1-carboxylate], half-maximal inhibition (IC50) was put at 55.6 nM.

The molecule `Cc1ccc(-n2nnc(C3CC3F)n2)cc1NC(=O)c1cnn2ccc(-c3cnn(CC(C)(C)O)c3)cc12` (stereo not shown) [Example 222, N-(5-(5-(2-fluorocyclopropyl)-2H-tetrazol-2-yl)-2-methylphenyl)-5-(1-(2-hydroxy-2-methylpropyl)-1H-pyrazol-4-yl)pyrazolo[1,5-a]pyridine-3-carboxamide] came in with a half-inhibitory concentration (IC50) of 2.7 nM.

In turn, `COC(=O)N1CC(n2nnc(-c3ccc(C)c(NC(=O)c4cnn5ccc(NCCO)cc45)c3)n2)C1` [Example 142, Methyl 3-(5-(3-(5-((2-hydroxyethyl)amino)pyrazolo[1,5-a]pyridine-3-carboxamido)-4-methylphenyl)-2H-tetrazol-2-yl)azetidine-1-carboxylate] returned a concentration for half-maximal inhibition (IC50) of 17.1 nM.

Turning to `O=C(Nc1cc(-c2nnn(CC3CC3(F)F)n2)ccc1Cl)c1cnn2ccccc12` (stereo not shown) [Example 16, N-(2-chloro-5-(2-((2,2-difluorocyclopropyl)methyl)-2H-tetrazol-5-yl)phenyl)pyrazolo[1,5-a]pyridine-3-carboxamide], the IC50 came to 2.3 nM.

As to `Cc1nn(C[C@@H](C)O)cc1-c1ccn2ncc(C(=O)Nc3cc(-c4nnn(C5CC5)n4)c(F)cc3Cl)c2c1` [Example 281, (R)—N-(2-chloro-5-(2-cyclopropyl-2H-tetrazol-5-yl)-4-fluorophenyl)-5-(1-(2-hydroxypropyl)-3-methyl-1H-pyrazol-4-yl)pyrazolo[1,5-a]pyridine-3-carboxamide], the IC50 is 0.4 nM.

Molecule `Cc1c(-c2ccn3ncc(C(=O)Nc4cc(-c5nnn(C6CC6)n5)c(F)cc4Cl)c3c2)cnn1C[C@H](C)O` [Example 264, (S)-N-(2-chloro-5-(2-cyclopropyl-2H-tetrazol-5-yl)-4-fluorophenyl)-5-(1-(2-hydroxypropyl)-5-methyl-1H-pyrazol-4-yl)pyrazolo[1,5-a]pyridine-3-carboxamide] had an IC50 of 0.5 nM.

As for `COC(=O)N1CC(n2nnc(-c3ccc(C)c(NC(=O)c4cnn5ccc(N[C@H]6CCOC6)cc45)c3)n2)C1` [Example 136, methyl (S)-3-(5-(4-methyl-3-(5-((tetrahydrofuran-3-yl)amino)pyrazolo[1,5-a]pyridine-3-carboxamido)phenyl)-2H-tetrazol-2-yl)azetidine-1-carboxylate], the IC50 came to 76.2 nM.

In turn, `Cc1ccc(-c2nnn(C)n2)cc1NC(=O)c1cnn2ccccc12` [Example 2, N-(2-methyl-5-(2-methyl-2H-tetrazol-5-yl)phenyl)pyrazolo[1,5-a]pyridine-3-carboxamide] showed a concentration for half-maximal inhibition (IC50) of 4.8 nM.

In the case of `Cc1ccc(-c2nnn(C3CC(F)(F)C3)n2)cc1NC(=O)c1cnn2ccc(N3CC[C@@](C)(O)C3)cc12` (single isomer, unassigned) [Example 86, (S)—N-(5-(2-(3,3-difluorocyclobutyl)-2H-tetrazol-5-yl)-2-methylphenyl)-5-(3-hydroxy-3-methylpyrrolidin-1-yl)pyrazolo[1,5-a]pyridine-3-carboxamide or (R)—N-(5-(2-(3,3-difluorocyclobutyl)-2H-tetrazol-5-yl)-2-methylphenyl)-5-(3-hydroxy-3-methylpyrrolidin-1-yl)pyrazolo[1,5-a]pyridine-3-carboxamide], the IC50 came to 8.6 nM.

For the molecule `COCCNc1ccn2ncc(C(=O)Nc3cc(-c4nnn(C)n4)ccc3C)c2c1` [Example 87, 5-((2-methoxyethyl)amino)-N-(2-methyl-5-(2-methyl-2H-tetrazol-5-yl)phenyl)pyrazolo[1,5-a]pyridine-3-carboxamide], the half-maximal inhibitory concentration (IC50) is 34.5 nM.

`Cc1ccc(-c2nnn(C3CC3)n2)cc1NC(=O)c1cnn2ccc(-c3cnn(CCN4CCN(C)CC4)c3)cc12` [Example 219, N-(5-(2-cyclopropyl-2H-tetrazol-5-yl)-2-methylphenyl)-5-(1-(2-(4-methylpiperazin-1-yl)ethyl)-1H-pyrazol-4-yl)pyrazolo[1,5-a]pyridine-3-carboxamide] came in with an IC50 of 1.1 nM.

`CC(C)(O)Cn1cc(-c2ccn3ncc(C(=O)Nc4cc(-n5nnc(C6CC6)n5)ccc4Cl)c3c2)cn1` [Example 216, N-(2-chloro-5-(5-cyclopropyl-2H-tetrazol-2-yl)phenyl)-5-(1-(2-hydroxy-2-methylpropyl)-1H-pyrazol-4-yl)pyrazolo[1,5-a]pyridine-3-carboxamide] came in with an IC50 of 2.4 nM.

In turn, `COCCNc1ccn2ncc(C(=O)Nc3cc(-c4nnn(C[C@@H]5CC5(F)F)n4)ccc3C)c2c1` (single isomer, unassigned) [Example 123, (S)-N-(5-(2-((2,2-difluorocyclopropyl)methyl)-2H-tetrazol-5-yl)-2-methylphenyl)-5-((2-methoxyethyl)amino)pyrazolo[1,5-a]pyridine-3-carboxamide or (R)-N-(5-(2-((2,2-difluorocyclopropyl)methyl)-2H-tetrazol-5-yl)-2-methylphenyl)-5-((2-methoxyethyl)amino)pyrazolo[1,5-a]pyridine-3-carboxamide] gave an IC50 of 3.4 nM.

For the molecule `COCCNc1ccn2ncc(C(=O)Nc3cc(-n4ncc(C5CN(C(=O)OC)C5)n4)ccc3Cl)c2c1` [Example 111, methyl 3-(2-(4-chloro-3-(5-((2-methoxyethyl)amino)pyrazolo[1,5-a]pyridine-3-carboxamido)phenyl)-2H-1,2,3-triazol-4-yl)azetidine-1-carboxylate], the IC50 was found to be 11.8 nM.

As for `O=C(Nc1cc(-c2nnn(CC3CC3)n2)ccc1Cl)c1cnn2ccccc12` [Example 15, N-(2-chloro-5-(2-(cyclopropylmethyl)-2H-tetrazol-5-yl)phenyl)pyrazolo[1,5-a]pyridine-3-carboxamide], it took 4.2 nM to reach half-maximal inhibition (IC50).

As for `Cc1ccc(-c2nnn(C)n2)cc1NC(=O)c1cnn2ccc(-c3cn(CCO)nc3C)cc12` [Example 228, 5-(1-(2-hydroxyethyl)-3-methyl-1H-pyrazol-4-yl)-N-(2-methyl-5-(2-methyl-2H-tetrazol-5-yl)phenyl)pyrazolo[1,5-a]pyridine-3-carboxamide], 1.5 nM corresponded to half-maximal inhibition (IC50).

As to `COC(=O)N1CC(n2nnc(-c3ccc(C)c(NC(=O)c4cnn5ccc(N6CCN(CC(F)F)CC6)cc45)c3)n2)C1` [Example 73, methyl 3-(5-(3-(5-(4-(2,2-difluoroethyl)piperazin-1-yl)pyrazolo[1,5-a]pyridine-3-carboxamido)-4-methylphenyl)-2H-tetrazol-2-yl)azetidine-1-carboxylate], the 50% inhibitory concentration (IC50) was 46.6 nM.

On to `Cc1nn(CC(C)(C)O)cc1-c1ccn2ncc(C(=O)Nc3cc(-c4nnn(C5CC5)n4)ccc3Cl)c2c1` [Example 250, N-(2-chloro-5-(2-cyclopropyl-2H-tetrazol-5-yl)phenyl)-5-(1-(2-hydroxy-2-methylpropyl)-3-methyl-1H-pyrazol-4-yl)pyrazolo[1,5-a]pyridine-3-carboxamide], for which the IC50 worked out at 0.4 nM.

Regarding `Cn1nnc(-c2ccc(Cl)c(NC(=O)c3cnn4ccc(-c5cnn(CCO)c5)cc34)c2)n1` [Example 218, N-(2-chloro-5-(2-methyl-2H-tetrazol-5-yl)phenyl)-5-(1-(2-hydroxyethyl)-1H-pyrazol-4-yl)pyrazolo[1,5-a]pyridine-3-carboxamide], the IC50 came to 5.2 nM.

For the molecule `COC(=O)N1CC(n2nnc(-c3ccc(C)c(NC(=O)c4cnn5cc(N6CCOCC6)ccc45)c3)n2)C1` [Example 159, methyl 3-(5-(4-methyl-3-(6-morpholinopyrazolo[1,5-a]pyridine-3-carboxamido)phenyl)-2H-tetrazol-2-yl)azetidine-1-carboxylate], half-maximal inhibition (IC50) required 20.1 nM.

For the origin of these results see patent publication US20240262826A1, “WILD TYPE KIT INHIBITORS” (Blueprint Medicines Corporation, priority 2022, published 2024).
